Results on one substance are retold here after patent US20040192640A1, “Use of sucralfate for the treatment of cervical erosion” (priority 2004, published 2004).

One experiment deals with cervical erosion. The experiment is described as follows: Clinical test of topical intravaginal sucralfate gel for cervical erosion (colposcopic examination, signs and symptoms). The experiment is classed as in vivo, women. Particulars: after six weeks of treatment (so in the source); both formulations together. An excerpt:
Based on the observed colposcopic picture of the situation and on the seriousness of the possible accompanying inflammation state the patients under test have been classified according to a conventional classification of the cervical pathology, according to the following grade scheme.
Grade I: simple cervicitis; presence of mosaic-shaped lesions and ectopia; reduced leuconrhea and absence of dyspareunia (abnormal pain during sexual intercourse);
Grade II: cervicitis with extended erosion of the portio (30% of the surface); presence of altered epithelium; occasional blood discharge and occasional dyspareunia;
Grade III: cervicitis with extended erosion of the portio (50% of the surface); presence of ectopia; frequent blood discharge; leucorrhea and dyspareunia.
The 18 women, after final diagnosis, were divided into two test groups of nine patients each, in order to evaluate the effectiveness of the treatment according to the invention in two different formulations. The first formulation, continuing sucralfate at a concentration of 25% by weight as well as polycarbophil as a mucoadhesive/bioadhesive ingredient, corresponds to the preparation referred to above as Formulation 2, while the second formulation under test containing sucralfate at a concentration of 12.5% by weight as well as polycarbophil, corresponds to the Formulation 3. […]

A further experiment concerns duodenal ulcer. Particulars: oral dose of 1 g four times daily, for 4-8 weeks; cited from earlier work.
In a further experiment the test system is NSAID-induced ulceration. Particulars: cited from earlier work.

As for “β-D-fructofuranosyl-α-D-glucopyranoside octakis(hydrogen sulfate) aluminium complex [sucralfate]”, the “Patients considered on complete recovery” value with cervical erosion was 16 patients out of 18. The “Clinical effectiveness (cases)” value in the experiment on duodenal ulcer is 75 % of cases. In the experiment on NSAID-induced ulceration (duodenal localizations), the “Effectiveness in NSAID-induced ulceration, duodenal localizations” value is reported as “effective”. Also, the “Effect in NSAID-induced ulceration, gastric lesions” value in the experiment with NSAID-induced ulceration (when gastric lesions are present) was “only a symptomatic and non-reparative effect”.
